The values that follow come from patent US6949250B2, “Selective algaecides for control of cyanochloronta” (The United States of America as represented by the …, priority 2002, dated 2005).

Each structure is given as a SMILES string.

The subject of series [1] is Oscillatoria perornata. The series can be described thus: DNA2-59-1 first pond efficacy study: O. perornata abundance. It counts as in vivo. To be noted: first study, 0.1, 0.3 and 1 μM. The procedure:
(§1) The method described by Schrader et al. (2000) was used to determine the potential for using the anthraquinone derivatives as selective algicides in catfish aquaculture ponds. All catfish ponds used in efficacy tests were maintained using commercial pond management practices and were located at the Thad Cochran Pond Facility, Mississippi State University, Stoneville, Miss. Anthraquinone analogs were dissolved in deionized water before application to water within the limnocorrals.
Limnocorrals in which test compound was applied to the enclosed water were randomly selected, and control (no test compound applied) limnocorrals were included in each efficacy study. […]
In the first study, application rates of 0.1 μM (37.7 μg/L), 0.3 μM ([…]), and 1.0 μM (377 μg/L) of DNA2-59-1 were tested using limnocorrals (three replicates per concentration) that were of the same type used for testing DNA1-19-1. […] Water samples were also analyzed to determine the persistence of DNA2-59-1 in the pond water, and this analysis was performed by using high-pressure liquid chromatography (HPLC) (method and results are described later).

Series [2] relates to green algae. The series can be described thus: DNA2-59-1 second pond efficacy study: green algae abundance. It counts as in vivo. To be noted: 0.3 μM. The procedure:
as §1
(§2) Limnocorrals in which test compound was applied to the enclosed water were randomly selected, and control (no test compound applied) limnocorrals were included in each efficacy study. For each sampling, two water samples (250 mL) were obtained from within each limnocorral (approximately 6-8 cm below the water surface and from opposite sides of each limnocorral) and mixed together in a 500 mL sample bottle to provide a representative sample of the water contained within the limnocorral.
In the second efficacy test with DNA2-59-1, six limnocorrals (1.53 m in diameter and 1.53 m high) were placed in a 0.1-ha earthen pond containing a heavy bloom of O. perornata. The same delay in mixing the water within the limnocorrals used in the first efficacy study was utilized. Water within three randomly selected limnocorrals received an application rate of 0.3 μM DNA2-59-1, and the other three limnocorrals were controls. […]

For series [3], the system named is Oscillatoria perornata. The series can be described thus: DNA2-59-1 third pond efficacy study: O. perornata abundance. The format is in vivo. To be noted: 0.3 μM, within 24 hours after application. The method, then:
as §1, §2
(§3) For the third efficacy test with DNA2-59-1, twelve limnocorrals (2.44 m in diameter and 1.53 m high) were placed in a 4-ha earthen pond containing a bloom of O. perornata. […]

The nature of series [4]: DNA2-59-1 third efficacy study: dissipation rate and half-life in pond water (HPLC). It counts as physicochemical. Particulars: for DNA2-59-1 Levels in Pond Water: third study, 0.3 μM applied. The method, then:
For the third efficacy test with DNA2-59-1, twelve limnocorrals (2.44 m in diameter and 1.53 m high) were placed in a 4-ha earthen pond containing a bloom of O. perornata. The same procedures, application rate (0.3 μM), and methods used in the second efficacy test of DNA2-59-1 were used except six limnocorrals were randomly selected to receive an application rate of 0.3 μM DNA2-59-1 while the other six limnocorrals were controls. Water samples were collected before application of DNA2-59-1, 20 minutes after application, and at days 1, 2, 3, 4, and 7. The same tests and methods used in the first efficacy testing of DNA2-59-1 were used.
Approximately 15 mL each of water samples from DNA2-59-1 efficacy testing that were designated for HPLC analysis were placed in scintillation vials and held in a freezer. Water samples were later melted at room temperature, and 5 mL of each sample was then filtered through a nylon membrane filter (13 mm diameter and 0.45 μm; Whatman International, Maidstone, England) using a 5 mL syringe (Hamilton Company, Reno, Nev.) and a 13 mm syringe filter holder (Fisher Scientific Company, Pittsburgh, Pa.). Filtrate (1 mL) was placed in 2 mL vials and capped using teflon/rubber septum caps (National Scientific Company, Jeddah, Saudia Arabia). The filter paper was removed and placed in a scintillation vial to which 2 mL of HPLC grade methanol (Fisher Scientific, Fair Lawn, N.J.) was added and then sonicated for 5 minutes. The methanol solution was then filtered using a nylon membrane acrodisc (25 mm and 0.45 μm; Pall Life Sciences, Ann Arbor, Mich.), and the methanol filtrate was placed in separate 2 mL vials.
Filtrate samples were analyzed using a Waters 2690 Alliance HPLC containing a 996 PDA detector and a XTerra RP 18 column (150 mm×4.6 mm, 5 μm particle size; Waters Corporation, Milford, Mass.). The mobile phase consisted of 25 mM sodium dihydrogenphosphate in 0.1% phosphoric acid (A) and acetonitrile (B). The gradient was from 80A/20B in 15 minutes to 40A/60B. After each run, a 5 minute wash with methanol was performed, followed by equilibrating the column for 10 minutes with 80A/20B. The temperature was set at 40° C., the flow rate was 1 mL/minute, the detection wavelength 256 nm, and the sample injection volume was 10 μL. All solvents used were HPLC grade (Fisher Scientific, Fair Lawn, N.J.).
Means and standard deviations of data were determined and graphed. The graphs were used to help determine the half-life of DNA2-59-1 in the pond water. Because of the short duration of the first efficacy study, the half-life of DNA2-59-1 in the pond water could not be determined.

For series [5], the system named is Raphidiopsis brookii. The experiment in a line: DNA2-59-1 third pond efficacy study: Raphidiopsis brookii abundance. The format is in vivo. To be noted: 0.3 μM, one day after application. The method, then:
as §1, §2, §3

The test system of series [6] is O. perornata. The series can be described thus: DNA1-19-1 second and third pond efficacy studies: O. perornata filaments. The format is in vivo, Oscillatoria perornata. To be noted: second and third efficacy study; 1, 0.3, and 0.1 μM. The method, then: as §1, §2
In the second study with DNA1-19-1, twelve limnocorrals that were the same size as those used in the first study were placed in another 4-ha earthen catfish pond. […] The sampling regime and procedures used in the first study were followed in a similar manner, except that water samples were obtained before DNA1-19-1 application, 16 hours after application, and at days 2, 4, and 7. […]

For the molecule `CC(C)NCc1ccc2c(c1)C(=O)c1ccccc1C2=O` [DNA2-59-1, 2-[methylamino-N-(1′-methylethyl)]-9,10-anthraquinone monophosphate], the “numbers of O. perornata filaments compared to controls (result in words)” value in series [1] is “significantly reduced”. Further, the “Green algae (result in words)” value in series [2] is “not significantly affected”. Further, the “Numbers of O. perornata (result in words)” value in series [3] is listed as “significantly reduced”. The same molecule gave a half-life at 0.3 μM in series [4] (pond water in limnocorrals (earthen catfish pond), third efficacy study) of 19 h. Moreover, the DNA2-59-1 Levels in Pond Water in series [4] (0 hours) came to 90.6 ± 7.9 µg/L; in series [4] (24 hours), 31.5 ± 4.4 µg/L; in series [4] (48 hours) it was 9.2 ± 3.2 µg/L; in series [4] (72 hours), 2.2 ± 0.5 µg/L; in series [4] (96 hours) it was 0 µg/L. The “Numbers of Raphidiopsis brookii (result in words)” value in series [5] is given as “significantly reduced”.

`CCN(CC)CCCC(C)NCc1ccc2c(c1)C(=O)c1ccccc1C2=O.O=P(O)(O)O.O=P(O)(O)O` (centres unmarked) [DNA1-19-1, 2-[methylamino-N-(1′-methyl-4′-N,N-diethylaminobutyl)]-9,10-anthraquinone diphosphate]: in series [6], the “numbers of O. perornata filaments compared to controls (result in words)” value is on record as “lack of reduction”.

By half-life is commonly meant the time needed for the level to fall by half in the phase considered.
